Data published in patent US20070254303A1, “Methods for assessing the efficacy of treatment with a glucocorticoid” (Praecis Pharmaceuticals Incorporated, priority 2006, published 2007).

How the values were obtained:
[1] = molecular target: T1, MetAP-2 in white blood cells (Rattus norvegicus, UniProt P38062); assay: MetAP-2 pharmacodynamic assay (ELISA of uninhibited MetAP-2 in white blood cell lysates of treated rats); type: in vivo; conditions: po, PG-PS arthritic rats, every other day, relative to the vehicle-treated group, read-out: MetAP-2 in white blood cells inhibited; for inhibition at 1 mg/kg: 1 mg/kg orally, pooled wbc after conclusion of study
T1 construct: white blood cells from animals of each study group were pooled and cell lysates were prepared; from tissue; host or cells: white blood cells of female Lewis rats (PG-PS arthritis model)
T1 sequence (P38062 whole entry): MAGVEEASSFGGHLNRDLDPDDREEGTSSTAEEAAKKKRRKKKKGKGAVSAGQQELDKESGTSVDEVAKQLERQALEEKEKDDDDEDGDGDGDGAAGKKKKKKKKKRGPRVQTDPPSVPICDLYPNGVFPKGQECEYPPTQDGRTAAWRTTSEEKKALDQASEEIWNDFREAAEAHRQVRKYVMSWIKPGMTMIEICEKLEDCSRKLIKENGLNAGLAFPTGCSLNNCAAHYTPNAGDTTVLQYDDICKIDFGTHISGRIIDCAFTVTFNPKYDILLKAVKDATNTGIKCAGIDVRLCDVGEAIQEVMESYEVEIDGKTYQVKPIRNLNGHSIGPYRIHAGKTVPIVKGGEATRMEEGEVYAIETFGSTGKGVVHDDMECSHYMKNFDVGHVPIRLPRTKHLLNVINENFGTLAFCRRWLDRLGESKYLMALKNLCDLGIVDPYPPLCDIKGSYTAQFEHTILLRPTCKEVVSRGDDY
Protocol: After completion of the study, wbc from rats of different groups that had been treated with vehicle (p.o., qod), dex (1 mg/kg, p.o., qod) or MetAP-2 inhibitor (1, 5, or 10 mg/kg, p.o., qod) were pooled, lysed, and the amount of MetAP-2 inhibited in wbc lysates was determined by the MetAP-2 pharmacodynamic assay. All values are expressed as percentage of the amount of MetAP-2 inhibited compared with vehicle-treated rats. The amount of uninhibited MetAP-2 (=100%) in vehicle-treated rats in this assay corresponded to 41 ng MetAP-2 per mg wbc protein. The detection limit was 0.47 ng MetAP-2 per mg wbc protein. Columns: 10 rats per group, except for naive rats treated with vehicle (n=4).
(§1) Rat model of Peptidoglycan-Polysaccharide (PG-PS) induced arthritis. Female Lewis rats (109-130 g) were received from Charles River Laboratories. Food and water were available ad libitum. PG-PS (25 mg/kg) was injected intraperitoneally on day 1 and responding animals were randomized into treatment groups on day 14. Vehicle (11% HPCD in PBS), dexamethasone and a methionine aminopeptidase 2 inhibitor (1, 5, and 10 mg/kg) were administered orally, every other day. Paw swelling was monitored using a plethysmometer (Stoelting Co., Woodale, Ill.) according to instrument specifications. The volumes of the two hind paws were measured and averaged on day 1, 4, 6, 8, 10, 13, 15, 17, 20, 22, 23, 27, 29 and 31. Ten animals were assigned to each group except the vehicle group and animals which received no PG-PS, but 10 mg/kg of the methionine aminopeptidase 2 inhibitor (n=4). The methionine aminopeptidase 2 inhibitor comprising the structure structure (1-Carbamoyl-2-methyl-propyl)-carbamic acid-(3R, 4S, 5S, 6R )-5-methoxy-4-[(2R, 3R)-2-methyl-3-(3-methyl-but-2-enyl)-oxiranyl]-1-oxa-spiro[2.5]oct-6-yl ester was used in the present studies.
MetAP-2 pharmacodynamic assay. The MetAP-2 assay is an ELISA assay that measures the amount of uninhibited MetAP-2 in cells or tissues which has not been derivitized by prior treatment with a methionine aminopeptidase 2 inhibitor and/or a glucocorticoid. The assay was performed as described in, for example, Bernier, S. G., et al. (2004) Proc. Natl. Acad. Sci. USA 101: 10768-10773 and Bernier, S. G., et al. (2005) J. Cell. Biochem. 95:1191-1203, the entire contents of each of which are incorporated herein by reference. Briefly, white blood cells from animals of each study group were pooled and cell lysates were prepared as described in, for example, Bernier, S. G., et al. (2004) Proc. Natl. Acad. Sci. USA 101: 10768-10773 and Bernier, S. G., et al. (2005) J. Cell. Biochem. 95:1191-1203. […] After 1 hour, the plates were washed, and the immobilized biotinylated MetAP-2-inhibitor complex was then detected with an anti-MetAP-2 antibody, CM33 (0.5 μg/ml). […]

[2] = system: Peptidoglycan-Polysaccharide (PG-PS) induced arthritis; assay: Rat model of PG-PS induced arthritis, paw swelling of the hind limbs; type: in vivo; conditions: 1, 5 and 10 mg/kg orally, every other day, day 15 to day 31; compared to vehicle-treated animals
Protocol: as §1

| inhibition at 1 mg/kg [1] [%] | inhibition at 5 mg/kg ([1]; 5 mg/kg orally) [%] | inhibition at 10 mg/kg ([1]; 10 mg/kg orally) [%] | Compound | joint swelling and inflammation, measured by paw swelling of the hind limbs [2] |
| --- | --- | --- | --- | --- |
| ≥ 90 |  |  | C[C@@H]1C[C@H]2[C@@H]3CCC4=CC(=O)C=C[C@]4(C)[C@@]3(F)[C@@H](O)C[C@]2(C)[C@@]1(O)C(=O)CO [dexamethasone, reference compound] |  |
| ≥ 60 | ≥ 95 | ≥ 95 | CO[C@@H]1[C@H](OC(=O)N[C@@H](C(N)=O)C(C)C)CC[C@]2(CO2)[C@H]1[C@@]1(C)O[C@@H]1CC=C(C)C [methionine aminopeptidase 2 inhibitor, (1-Carbamoyl-2-methyl-propyl)-carbamic acid-(3R, 4S, 5S, 6R )-5-methoxy-4-[(2R, 3R)-2-methyl-3-(3-methyl-but-2-enyl)-oxiranyl]-1-oxa-spiro[2.5]oct-6-yl ester] | significant amelioration of joint swelling and inflammation |
